5 compounds from PMC5429769, “Rational development of Stafib-2: a selective, nanomolar inhibitor of the transcription factor STAT5b” (Scientific Reports, 2017) can be followed below.

Molecules are shown by their SMILES. Entries after “also recorded” stand apart in the source; their conditions may differ.

Assay [1] concerns the target T1, STAT5b SH2 domain (Homo sapiens, UniProt P51692).
T1 sequence (P51692 1-787): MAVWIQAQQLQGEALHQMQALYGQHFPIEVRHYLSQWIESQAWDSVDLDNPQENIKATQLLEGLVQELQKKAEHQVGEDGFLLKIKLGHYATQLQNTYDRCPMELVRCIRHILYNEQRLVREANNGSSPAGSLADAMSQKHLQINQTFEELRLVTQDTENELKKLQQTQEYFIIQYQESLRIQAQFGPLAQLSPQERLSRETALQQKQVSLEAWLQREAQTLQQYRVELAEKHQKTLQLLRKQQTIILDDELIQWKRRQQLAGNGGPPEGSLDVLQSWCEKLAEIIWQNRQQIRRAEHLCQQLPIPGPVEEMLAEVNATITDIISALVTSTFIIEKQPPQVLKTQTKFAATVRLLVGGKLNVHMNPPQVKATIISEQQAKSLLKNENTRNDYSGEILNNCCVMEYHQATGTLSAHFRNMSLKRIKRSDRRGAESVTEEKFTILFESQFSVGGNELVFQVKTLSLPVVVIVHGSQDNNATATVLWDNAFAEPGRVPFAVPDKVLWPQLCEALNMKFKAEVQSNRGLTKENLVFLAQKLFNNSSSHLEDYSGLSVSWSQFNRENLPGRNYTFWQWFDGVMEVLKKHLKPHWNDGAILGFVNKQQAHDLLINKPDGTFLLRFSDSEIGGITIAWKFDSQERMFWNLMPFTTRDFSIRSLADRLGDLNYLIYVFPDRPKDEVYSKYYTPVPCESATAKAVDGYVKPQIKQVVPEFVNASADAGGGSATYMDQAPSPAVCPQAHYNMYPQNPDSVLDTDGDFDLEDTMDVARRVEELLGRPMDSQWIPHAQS
The assay is described as follows: Fluorescence polarization assay, STAT5b SH2 domain. The format is binding. The following applies: for Ki: converted from IC50 using the published equation, n = 3; for Ki / IC50: mean ± s.d.; for IC50: fluorescence polarization, three independent experiments.

The target in assay [2] is T2, STAT5a SH2 domain (Homo sapiens, UniProt P42229).
T2 sequence (P42229 1-794): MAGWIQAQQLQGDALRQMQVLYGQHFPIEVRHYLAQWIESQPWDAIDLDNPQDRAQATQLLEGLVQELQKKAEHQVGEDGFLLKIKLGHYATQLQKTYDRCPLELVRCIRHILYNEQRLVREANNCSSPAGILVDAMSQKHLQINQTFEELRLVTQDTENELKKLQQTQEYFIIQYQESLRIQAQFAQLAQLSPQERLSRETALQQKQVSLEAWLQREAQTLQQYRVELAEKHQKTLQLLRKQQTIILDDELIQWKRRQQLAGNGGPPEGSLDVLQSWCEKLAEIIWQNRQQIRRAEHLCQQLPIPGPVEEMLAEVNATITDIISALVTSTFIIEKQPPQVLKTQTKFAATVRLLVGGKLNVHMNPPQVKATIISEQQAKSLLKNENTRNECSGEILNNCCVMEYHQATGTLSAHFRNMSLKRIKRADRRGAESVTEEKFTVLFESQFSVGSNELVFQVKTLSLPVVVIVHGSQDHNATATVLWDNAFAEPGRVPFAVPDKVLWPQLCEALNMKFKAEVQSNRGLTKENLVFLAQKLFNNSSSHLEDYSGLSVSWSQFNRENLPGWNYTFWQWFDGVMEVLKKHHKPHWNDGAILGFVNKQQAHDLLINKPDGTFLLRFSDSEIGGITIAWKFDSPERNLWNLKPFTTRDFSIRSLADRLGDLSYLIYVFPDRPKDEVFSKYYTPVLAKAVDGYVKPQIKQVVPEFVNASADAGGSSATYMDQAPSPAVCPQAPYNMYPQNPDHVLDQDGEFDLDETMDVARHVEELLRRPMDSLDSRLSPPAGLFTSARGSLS
The assay can be described thus: Fluorescence polarization assay, STAT5a SH2 domain. The format is binding. To be noted: mean ± s.d.; for Ki: converted from IC50 using the published equation, n = 3; for IC50: fluorescence polarization, three independent experiments.

In assay [3] the target is T3, STAT5b-GFP (Homo sapiens, UniProt P51692).
T3 sequence (P51692 1-787): T1 sequence (P51692 1-787)
The assay can be described thus: STAT5b Tyr699 phosphorylation in STAT5b-GFP-transfected K562 cells (Western blot). The following applies: STAT5b-GFP-transfected K562 cells. The format is cell-based.

The test system of assay [4] is MDA-MB-231 cells. The assay is described as follows: Apoptosis assay (Annexin V / 7-AAD flow cytometry), MDA-MB-231 cells. To be noted: MDA-MB-231 cells (STAT5-independent), 48 h, result in words. Format: cell-based.
For assay [5], the system named is endogenous STAT5. The assay is described as follows: Tyrosine phosphorylation of endogenous total STAT5 in STAT5a/b-GFP-transfected K562 cells. The format is cell-based, human. The following applies: result in words.
Assay [6] has as its system STAT5a-GFP. The assay is described as follows: STAT5a Tyr694 phosphorylation in STAT5a-GFP-transfected K562 cells (Western blot). Format: cell-based, human. To be noted: 4 h, result in words.
Assay [7] relates to K562 cells. The assay is described as follows: Apoptosis assay (Annexin V / 7-AAD flow cytometry), K562 cells. The format is cell-based, human. The following applies: untransfected K562 cells, 48 h, result in words.
The subject of assay [8] is STAT5b-GFP. The assay can be described thus: STAT5b Tyr699 phosphorylation in STAT5b-GFP-transfected K562 cells (Western blot). Format: cell-based, human. To be noted: STAT5b-GFP-transfected K562 cells, 4 h, result in words.

For `O=C(COc1ccc2cc(C(=O)Nc3ccc(Oc4ccccc4)cc3)ccc2c1)NCc1ccc(OP(=O)(O)O)c(OP(=O)(O)O)c1` [compound 3], the “fold less active than 2” value in assay [1] (STAT5b Ki relative to 2) is reported as 2 fold. Moreover, in assay [1], the Ki came to 93 ± 3 nM and the IC50 was 190 ± 10 nM. Moreover, in assay [2], the Ki came to 2900 ± 100 nM and the IC50 is 5800 ± 300 nM.
As for `O=C(COc1ccc(C(=O)Nc2ccccc2)cc1)NCc1ccc(OP(=O)(O)O)c(OP(=O)(O)O)c1` [compound 5], the Ki in assay [1] is 110 ± 10 nM; in assay [2], 4800 ± 100 nM. In addition, the IC50 in assay [1] stood at 280 ± 10 nM; in assay [2], 9700 ± 300 nM.
With `O=C(COc1ccc(C(=O)Nc2ccc(Oc3ccccc3)cc2)cc1)NCc1ccc(O)c(O)c1` [compound 7], the STAT5b inhibition result in assay [1] (at 80 µM) is listed as “lack of activity; also recorded: no inhibition at 80 µM”.
For `CC(C)(C)C(=O)OCOP(=O)(OCOC(=O)C(C)(C)C)Oc1ccc(CNC(=O)COc2ccc(C(=O)Nc3ccc(Oc4ccccc4)cc3)cc2)cc1OP(=O)(OCOC(=O)C(C)(C)C)OCOC(=O)C(C)(C)C` [compound 8, ((((4-((2-(4-((4-Phenoxyphenyl)carbamoyl)phenoxy)acetamido)methyl)-1,2-phenylene)bis(oxy))bis(oxo-l5-phosphanetriyl))tetrakis(oxy))tetrakis(methylene) tetrakis(2,2-dimethylpropanoate)], in assay [3], the “fold more active against STAT5b phosphorylation than the pivaloyloxymethylesters of 2 and of Capstafin” value turned out to be 2.5 fold. Further, the “inhibition of STAT5b phosphorylation” value in assay [3] (4 h, result in words) was “Dose-dependent inhibition”. For the same compound, the apoptotic rate result in assay [4] is given as “does not increase; also recorded: not increased”; in assay [7] it was “dose-dependent increase; also recorded: increased”. Moreover, the “inhibition of phosphorylation of endogenous STAT5” value in assay [5] was “inhibited”. In addition, the “inhibition of STAT5a phosphorylation” value in assay [6] is on record as “not significantly reduced; also recorded: not inhibited”; in assay [6] (listed as Pomstafib-2), “without significantly affecting”.
With `CC(C)(C)C(=O)OCOP(=O)(Cc1ccccc1CP(=O)(OCOC(=O)C(C)(C)C)OCOC(=O)C(C)(C)C)OCOC(=O)C(C)(C)C` [compound 9, reference compound], in assay [8], the “inhibition of STAT5b phosphorylation” value is “lack of inhibition”. Moreover, the “inhibition of STAT5a phosphorylation” value in assay [6] is “lack of inhibition”.
